Source: US10898481B2 (priority 2018, dated 2021)

Tests used:
[1] = target: hA2b/CHO (Homo sapiens (Human), UniProt P29275); assay: cAMP inhibition assay in hA2b/CHO cells, 10 μM adenosine; format: cell-based; details: read-out: cAMP & FLIPR IC50 (nM) hA2b;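 further: cells exposed to compound 30 min at 37 °C, then stimulated with adenosine a further 30 min, cAMP read after 60 min at room temperature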
Protocol: (§1) hA2a/CHO, hA2b/CHO, hA3/CHO and mA2a/CHO (Genscript) were plated at 5×10^3 cells/well into 384-well polystyrene plates at the day of experiment. Compounds were pre-incubated with cells for 30 min at 37° C., 5% CO2. Then 10 μM adenosine was added to the cells and incubated for 30 min at 37° C., 5% CO2. Detection reagent (CISBIO) was added and the plates were incubated for 60 min at room temperature. The signal was captured by Envision.

[2] = target: mA2a/CHO (Mus musculus (Mouse), UniProt Q60613); assay: cAMP inhibition assay in mA2a/CHO cells, 10 μM adenosine; format: cell-based; details: read-out: cAMP & FLIPR IC50 (nM) mA2a;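 further: compounds preincubated 30 min at 37 °C before the adenosine challenge, then 30 min further stimulation, readout after 60 min detection reagent incubation at room temperature in 384-well plates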
Sequence of mA2a/CHO (Q60613 whole entry): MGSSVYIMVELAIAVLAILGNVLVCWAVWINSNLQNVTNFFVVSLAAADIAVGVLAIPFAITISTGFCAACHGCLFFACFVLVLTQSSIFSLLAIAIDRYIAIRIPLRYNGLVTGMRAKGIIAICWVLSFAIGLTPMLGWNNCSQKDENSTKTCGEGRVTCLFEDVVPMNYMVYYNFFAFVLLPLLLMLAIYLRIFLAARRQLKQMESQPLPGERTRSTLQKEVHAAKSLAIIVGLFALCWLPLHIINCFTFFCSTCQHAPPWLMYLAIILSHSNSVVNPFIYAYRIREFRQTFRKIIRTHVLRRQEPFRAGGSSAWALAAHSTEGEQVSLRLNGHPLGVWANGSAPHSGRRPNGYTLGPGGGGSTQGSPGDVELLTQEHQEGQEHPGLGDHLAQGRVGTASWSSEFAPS
Protocol: as §1

[3] = target: hADORA1/CHO (hA1 expressing) cells (Homo sapiens (Human), UniProt P30542); assay: cell-based; details: FLIPR inhibition, 10 μM adenosine, read-out: cAMP & FLIPR IC50 (nM) hA1
Sequence of hADORA1/CHO (hA1 expressing) cells (P30542 whole entry): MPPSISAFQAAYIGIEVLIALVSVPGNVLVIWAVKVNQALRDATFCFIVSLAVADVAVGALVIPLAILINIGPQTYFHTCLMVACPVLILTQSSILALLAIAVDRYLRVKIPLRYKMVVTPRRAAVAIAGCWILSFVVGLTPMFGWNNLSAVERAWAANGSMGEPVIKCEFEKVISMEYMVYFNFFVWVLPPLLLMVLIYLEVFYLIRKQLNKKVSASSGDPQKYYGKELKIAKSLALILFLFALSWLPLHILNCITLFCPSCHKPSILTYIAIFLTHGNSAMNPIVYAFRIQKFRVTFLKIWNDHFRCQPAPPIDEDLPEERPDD

[4] = target: hA2a/CHO (Homo sapiens (Human), UniProt P29274); assay: cAMP inhibition assay in hA2a/CHO cells, 10 μM adenosine; format: cell-based; details: read-out: cAMP & FLIPR IC50 (nM) hA2a;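 further: compounds added to cells 30 min ahead of adenosine, then a further 30 min at 37 °C with adenosine before cAMP detection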
Sequence of hA2a/CHO (P29274 whole entry): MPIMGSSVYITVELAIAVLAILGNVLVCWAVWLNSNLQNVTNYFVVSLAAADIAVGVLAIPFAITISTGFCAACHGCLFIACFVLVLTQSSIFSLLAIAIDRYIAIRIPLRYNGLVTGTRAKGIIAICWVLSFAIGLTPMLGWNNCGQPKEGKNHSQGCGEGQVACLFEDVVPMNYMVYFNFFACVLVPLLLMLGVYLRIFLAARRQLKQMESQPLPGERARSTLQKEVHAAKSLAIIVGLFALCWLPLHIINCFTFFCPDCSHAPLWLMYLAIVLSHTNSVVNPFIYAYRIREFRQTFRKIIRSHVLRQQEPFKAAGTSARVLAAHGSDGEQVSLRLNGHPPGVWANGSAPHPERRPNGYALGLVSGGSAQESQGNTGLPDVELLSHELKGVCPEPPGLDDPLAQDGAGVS
Protocol: as §1

Sequence of hA2b/CHO (P29275 whole entry): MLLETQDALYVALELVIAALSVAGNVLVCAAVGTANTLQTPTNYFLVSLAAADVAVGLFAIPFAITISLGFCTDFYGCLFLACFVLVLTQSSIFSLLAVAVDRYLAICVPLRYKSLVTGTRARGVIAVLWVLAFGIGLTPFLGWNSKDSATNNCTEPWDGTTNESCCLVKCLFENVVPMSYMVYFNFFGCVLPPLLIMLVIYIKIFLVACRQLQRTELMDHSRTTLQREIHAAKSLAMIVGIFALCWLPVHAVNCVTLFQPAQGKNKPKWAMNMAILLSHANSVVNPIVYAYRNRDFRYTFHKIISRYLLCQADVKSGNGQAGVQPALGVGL

Row | SMILES | IC50 [1] | IC50 [2] | IC50 [3] | IC50 [4]
1 | Cc1cnc2ccc(-c3nc(C(=O)NCC4CCCN4C)c(N)nc3-c3ncco3)cn12 (single isomer, unassigned) [Example 120] | 775 nM | 167 nM |  | 
2 | Cc1cnc2ccc(-c3nc(C(=O)NCC4CCCN4C)c(N)nc3-c3ncco3)cn12 (single isomer, unassigned) [Example 121] | 747 nM | 204 nM |  | 
3 | Cc1cnc2ccc(-c3nc(C(=O)NC[C@H]4CC(C)(C)CN4C)c(N)nc3-c3ncco3)cn12 (single isomer, unassigned; isomer 2) [Example 230, 3-amino-6-(3-methylimidazo[1,2-a]pyridin-6-yl)-5-(oxazol-2-yl)-N-((1,4,4-trimethylpyrrolidin-2-yl)methyl) pyrazine-2-carboxamide (isomer 2)] |  |  | 6000 nM | 15 nM
4 | Cc1cnc2ccc(-c3nc(C(=O)NCC4CCCN(C)C4=O)c(N)nc3-c3ncco3)cn12 (single isomer, unassigned; isomer 2) [Example 254, 3-amino-N-((1-methyl-2-oxopiperidin-3-yl)methyl)-6-(3-methylimidazo[1,2-a]pyridin-6-yl)-5-(oxazol-2-yl) pyrazine-2-carboxamide (isomer 2)] |  |  | 99 nM | 0.7 nM
5 | Cc1cnc2ccc(-c3nc(C(=O)NCC4CCN(C)C4=O)c(N)nc3-c3ccc(F)cc3)cn12 (single isomer, unassigned; isomer 2) [Example 256, 3-amino-5-(4-fluorophenyl)-N-((1-methyl-2-oxopyrrolidin-3-yl)methyl)-6-(3-methylimidazo[1,2-a]pyridin-6-yl) pyrazine-2-carboxamide (isomer 2)] |  |  | 34 nM | 1.8 nM
6 | Cc1cnc2ccc(-c3nc(C(=O)NC(C)C4CCCO4)c(N)nc3-c3ncco3)cn12 (single isomer, unassigned; isomer 2) [Example 262, 3-amino-6-(3-methylimidazo[1,2-a]pyridin-6-yl)-5-(oxazol-2-yl)-N-(1-(tetrahydrofuran-2-yl)ethyl)pyrazine-2-carboxamide (isomer 2)] |  |  | 11600 nM | 12 nM
7 | Cc1cnc2ccc(-c3nc(C(=O)NCC(C4CC4)N(C)C)c(N)nc3-c3ncco3)cn12 (single isomer, unassigned; isomer 2) [Example 269, 3-amino-N-(2-cyclopropyl-2-(dimethylamino)ethyl)-6-(3-methylimidazo[1,2-a]pyridin-6-yl)-5-(oxazol-2-yl) pyrazine-2-carboxamide (isomer 2)] |  |  | > 10000 nM | 37 nM
8 | Cc1cnc2ccc(-c3nc(C(=O)NCC4CC(C)(C)O4)c(N)nc3-c3ncco3)cn12 (single isomer, unassigned; isomer 2) [Example 270, 3-amino-N-((4,4-dimethyloxetan-2-yl)methyl)-6-(3-methylimidazo[1,2-a]pyridin-6-yl)-5-(oxazol-2-yl)pyrazine-2-carboxamide (isomer 2)] |  |  | 300 nM | 7.4 nM
9 | Cc1cnc2ccc(-c3nc(C(=O)NC(C)C4CCCO4)c(N)nc3-c3ncco3)cn12 (single isomer, unassigned; isomer 3) [Example 274, 3-amino-6-(3-methylimidazo[1,2-a]pyridin-6-yl)-5-(oxazol-2-yl)-N-(1-(tetrahydrofuran-2-yl)ethyl)pyrazine-2-carboxamide (isomer 3)] |  |  | 275 nM | 0.9 nM
10 | Cc1cnc2ccc(-c3nc(C(=O)NC(C)C4CCCO4)c(N)nc3-c3ncco3)cn12 (single isomer, unassigned; isomer 4) [Example 258, 3-amino-6-(3-methylimidazo[1,2-a]pyridin-6-yl)-5-(oxazol-2-yl)-N-(1-(tetrahydrofuran-2-yl)ethyl)pyrazine-2-carboxamide (isomer 4)] |  |  | 2510 nM | 8.1 nM
11 | Cc1cnc2ccc(-c3nc(CNC(=O)C4CCCO4)c(N)nc3-c3ccc(F)cc3)cn12 (stereo in doubt) [Cmpd. 268, (2S)—N-[[3-amino-5-(4-fluorophenyl)-6-[3-methyl-imidazo-[1,2-a]pyridin-6-yl]pyrazin-2-yl]methyl]oxolane-2-carboxamide] |  |  | 6.7 nM | 0.2 nM
12 | Cc1cnc2ccc(-c3nc(C(=O)NCc4cccc(N5CC(CN(C)C)C5)n4)c(N)nc3-c3ncco3)cn12 [Cmpd. 261, 3-amino-N-((6-(3-((dimethylamino)methyl)azetidin-1-yl)pyridin-2-yl)methyl)-6-(3-methylimidazo[1,2-a]pyridin-6-yl)-5-(oxazol-2-yl)pyrazine-2-carboxamide] |  |  | 158 nM | 0.4 nM
13 | Cc1cc(-c2nc(C(=O)NCc3ccccc3OC(F)(F)F)c(N)nc2-c2ccc(F)cc2)cc(C)n1 [Example 65, 3-amino-6-(2,6-dimethylpyridin-4-yl)-5-(4-fluorophenyl)-N-(2-(trifluoromethoxy)benzyl)pyrazine-2-carboxamide] |  | 50 nM |  | 19 nM
14 | CNCCOc1cccnc1CNC(=O)c1nc(-c2ccc3ncn(C)c3c2)c(-c2ccc(F)cc2)nc1N [Example 115, 3-amino-5-(4-fluorophenyl)-6-(1-methyl-1H-1,3-benzodiazol-6-yl)-N-([3-[2-(methylamino)ethoxy]pyridin-2-yl]methyl)pyrazine-2-carboxamide] | 596 nM | 12 nM |  | 
15 | Cc1cnc2ccc(-c3nc(C(=O)NCc4cccc(N5C[C@H]6CC[C@@H](C5)N6C)n4)c(N)nc3-c3ncco3)cn12 [Example 173, 3-amino-N-((6-((1R,5S)-8-methyl-3,8-diazabicyclo[3.2.1]octan-3-yl)pyridin-2-yl)methyl)-6-(3-methylimidazo[1,2-a]pyridin-6-yl)-5-(oxazol-2-yl)pyrazine-2-carboxamide] |  |  | 6500 nM | 5.1 nM
16 | Cc1cnc2ccc(-c3nc(C(=O)NCc4cccc(C5CCN(C)CC5)n4)c(N)nc3-c3ncco3)cn12 [Example 176, 3-amino-6-(3-methylimidazo[1,2-a]pyridin-6-yl)-N-((6-(1-methylpiperidin-4-yl)pyridin-2-yl)methyl)-5-(oxazol-2-yl) pyrazine-2-carboxamide] |  |  | 599 nM | 11 nM
17 | Cc1cnc2ccc(-c3nc(C(=O)NCCn4ccccc4=O)c(N)nc3-c3ncco3)cn12 [Example 237, 3-amino-6-(3-methylimidazo[1,2-a]pyridin-6-yl)-5-(oxazol-2-yl)-N-(2-(2-oxopyridin-1(2H)-yl)ethyl)pyrazine-2-carboxamide] |  |  | 71 nM | 5.1 nM
18 | Cc1cnc2ccc(-c3nc(C(=O)NCc4c(F)cccc4F)c(N)nc3N3CCOCC3)cn12 [Example 238, 3-amino-N-(2,6-difluorobenzyl)-6-(3-methylimidazo[1,2-a]pyridin-6-yl)-5-morpholinopyrazine-2-carboxamide] |  |  | 401 nM | 0.5 nM
19 | Cc1cnc2ccc(-c3nc(C(=O)NCC4CCOCC4)c(N)nc3-c3ncco3)cn12 [Example 239, 3-amino-6-(3-methylimidazo[1,2-a]pyridin-6-yl)-5-(oxazol-2-yl)-N-((tetrahydro-2H-pyran-4-yl)methyl) pyrazine-2-carboxamide] |  |  | 2960 nM | 4.8 nM
20 | Cc1cnc2ccc(-c3nc(C(=O)N[C@@H]4CCOC4)c(N)nc3-c3ncco3)cn12 [Example 255, (R)-3-amino-6-(3-methylimidazo [1,2-a]pyridin-6-yl)-5-(oxazol-2-yl)-N-(tetrahydrofuran-3-yl)pyrazine-2-carboxamide] |  |  | 6850 nM | 20 nM
21 | Cc1cnc2ccc(-c3nc(CNC(=O)[C@H]4CCOC4)c(N)nc3-c3ccc(F)cc3)cn12 [Example 264, (S)-N-((3-amino-5-(4-fluorophenyl)-6-(3-methylimidazo[1,2-a]pyridin-6-yl)pyrazin-2-yl)methyl)tetrahydrofuran-3-carboxamide] |  |  | 84 nM | 25 nM
22 | Cc1cnc2ccc(-c3nc(CNC(=O)[C@@H]4CCCO4)c(N)nc3-c3ccc(F)cc3)cn12 [Example 265, (S)-N-((3-amino-5-(4-fluorophenyl)-6-(3-methylimidazo[1,2-a]pyridin-6-yl)pyrazin-2-yl)methyl)tetrahydrofuran-2-carboxamide] |  |  | 26 nM | 7.3 nM
23 | Cc1cnc2ccc(-c3nc(C(=O)N[C@H]4C[C@H](N(C)C)C4)c(N)nc3-c3ncco3)cn12 [Example 271-2, Trans-3-amino-N-(3-(dimethylamino)cyclobutyl)-6-(3-methylimidazo[1,2-a]pyridin-6-yl)-5-(oxazol-2-yl)pyrazine-2-carboxamide] |  |  | 865 nM | 23 nM
24 | Cc1cnc2ccc(-c3nc(CNC(=O)[C@@H]4CCOC4)c(N)nc3-c3ccc(F)cc3)cn12 [Example 275, (R)-N-((3-amino-5-(4-fluorophenyl)-6-(3-methylimidazo[1,2-a]pyridin-6-yl)pyrazin-2-yl)methyl)tetrahydrofuran-3-carboxamide] |  |  | 39 nM | 6.1 nM
25 | Cc1cnc2ccc(-c3nc(C(=O)NCc4cccc(N5CCOCC5)n4)c(N)nc3-c3ncco3)cn12 [Example 276, 3-amino-6-[3-methylimidazo[1,2-a]pyridin-6-yl]-N-[[6-(morpholin-4-yl)pyridin-2-yl]methyl]-5-(1,3-oxazol-2-yl)pyrazine-2-carboxamide] |  |  | 3070 nM | 3.1 nM
26 | Cc1cnc2ccc(-c3nc(C(=O)N[C@H]4CCOC4)c(N)nc3-c3ncco3)cn12 [Example 277, (S)-3-amino-6-(3-methylimidazo[1,2-a]pyridin-6-yl)-5-(oxazol-2-yl)-N-(tetrahydrofuran-3-yl)pyrazine-2-carboxamide] |  |  | 6560 nM | 12 nM
27 | Cc1cnc2ccc(-c3nc(CNC(=O)[C@H]4CCCN4C)c(N)nc3-c3cccc(F)c3)cn12 [Example 278, (R)—N-((3-amino-5-(3-fluorophenyl)-6-(3-methylimidazo[1,2-a]pyridin-6-yl)pyrazin-2-yl)methyl)-1-methylpyrrolidine-2-carboxamide] |  |  | 12 nM | 0.4 nM
